In patent US20240002393A1, “SUBSTITUTED BENZO[f][l ,2,4JTRIAZOL0[4,3-a][l ,4J[…] GABA A GAMMA! POSITIVE ALLOSTERIC MODULATORS” (Hoffmann-La Roche Inc., priority 2020, published 2024):

What was measured:
[1] = molecular target: h-GABA-A α2β2γ1 (Homo sapiens (Human), UniProt P47869+Q8N1C3); assay: Two-electrode voltage clamp electrophysiology in Xenopus oocytes expressing GABAA receptors; assay type: cell-based; settings: for Efficacy (GABA)%: % modulation of GABA EC20 = 100*(Fold increase−1), compound at 30-fold Ki; for Fold increase h-GABA-A α2β2γ1 oocyte @ 30-fold Ki: GABA EC20, test compound at about 30-fold its Ki α2β2γ1, at least 3 oocytes
In short: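 Oocytes injected with α2β2γ1 subunit mRNA were recorded on days 3–5 by two-electrode voltage clamp at −80 mV, room temperature, pH 7.4 superfusion. Compound effect on GABA EC20 current computed point by point against a control GABA response; extremum expressed as % modulation of GABA EC20, n≥3 oocytes.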

[2] = molecular target: human GABAA α5β2γ1 receptor (Homo sapiens (Human), UniProt P31644+Q8N1C3); assay: Radioligand binding assay, [3H]RO7239181 competition, γ1-containing GABAA subtypes; settings: HEK293F membranes, mean of two determinations

C[C@@H]1N=C(c2ccccc2F)c2c(ccc(Br)c2Cl)-n2cnnc21 [Example 30, (4S)-8-bromo-7-chloro-6-(2-fluorophenyl)-4-methyl-4H-[1,2,4]triazolo[4,3-a][1,4]benzodiazepine]
Efficacy (GABA)% [1]: 57% | Fold increase h-GABA-A α2β2γ1 oocyte @ 30-fold Ki [1]: 1.57 | Ki [2]: 2.6 nM

Cc1cc(-c2nnc3n2-c2ccc(Cl)c(Cl)c2C(c2c(F)cccc2F)=N[C@H]3C)nc(C)n1 [Example 96, (4S)-7,8-dichloro-6-(2,6-difluorophenyl)-1-(2,6-dimethylpyrimidin-4-yl)-4-methyl-4H-[1,2,4]triazolo[4,3-a][1,4]benzodiazepine]
Efficacy (GABA)% [1]: 52% | Fold increase h-GABA-A α2β2γ1 oocyte @ 30-fold Ki [1]: 1.52 | Ki [2]: 3 nM

C[C@@H]1N=C(c2c(F)cccc2F)c2c(ccc(Cl)c2Cl)-n2c1n[nH]c2=O [Example 64, (4S)-7,8-dichloro-6-(2,6-difluorophenyl)-4-methyl-2,4-dihydro-[1,2,4]triazolo[4,3-a][1,4]benzodiazepin-1-one]
Efficacy (GABA)% [1]: 74% | Fold increase h-GABA-A α2β2γ1 oocyte @ 30-fold Ki [1]: 1.74 | Ki [2]: 0.5 nM

CC[C@@H]1N=C(c2c(F)cccc2F)c2c(ccc(Br)c2Cl)-n2c(C)nnc21 [Example 98, (4S)-8-bromo-7-chloro-6-(2,6-difluorophenyl)-4-ethyl-1-methyl-4H-[1,2,4]triazolo[4,3-a][1,4]benzodiazepine]
Efficacy (GABA)% [1]: 107% | Fold increase h-GABA-A α2β2γ1 oocyte @ 30-fold Ki [1]: 2.07 | Ki [2]: 4.4 nM
